Where two headings read alike, the source gives them in different places.
Assay: Pharmacokinetics assay in rats
Assay type: in vivo, SD rats
Conditions: SD rats, intragastric, 50 mg/Kg (as free acid); for Vd/F / AUC / CL/F / half-life / MRT / Cmax / Tmax: both sexes, rat, po; for Vd/F: read-out: Apparent Distribution Volume Vz/F; for AUC: read-out: Area Under Curve AUC; for CL/F: read-out: Clearance CL/F (converted); for half-life: read-out: Half-Life t½ (converted); for MRT: read-out: Mean Residence Time MRT; for Cmax: read-out: Plasma Conc. Cmax; for Tmax: read-out: Time to peak Tmax
Description: The compounds of the present disclosure were administrated intragastrically to rats to determine the drug concentration in plasma at different time points by HPLC-UV. The pharmacokinetic behavior of the compounds of the present disclosure was studied and evaluated in rats. […] Healthy adult SD rats, male and female in half, were purchased from SINO-BRITSH SIPPR/BK LAB.ANIMAL LTD., Colo., License number: SCXK (Shanghai) 2003-0002 The test compound was diluted with 1% sodium carboxymethyl cellulose to 5 mg/mL (calculated as the free acid form) of suspension before use. Healthy adult SD rats, male and female in half, were divided into 23 groups. […] The plasma samples were stored at −20° C. until analysis. The rats were fed 2 hours after administration. […] Then the mixture was mixed for 3 minute using a vortexer and centrifuged for 10 minutes at 13,500 rpm. 40 μL of the supernatant was analyzed by HPLC-UV. The compartmental model of pharmacokinetics was fitted for the test compounds and the major pharmacokinetic parameters were calculated in which Cmax and tmax were the actually measured values.

Row | SMILES | Vd/F (SD, plasma, 50 mg/kg) [L/kg] | AUC (SD, plasma, 50 mg/kg) [µg·h/mL] | CL/F (SD, plasma, 50 mg/kg) [mL/min/kg] | half-life (SD, plasma, 50 mg/kg) [min] | MRT (SD, plasma, 50 mg/kg) [h] | Cmax (SD, plasma, 50 mg/kg) [ng/mL] | Tmax (SD, plasma, 50 mg/kg) [h] | Vd/F (in vivo) [L/kg] | AUC (in vivo) [µg·h/mL] | CL/F (in vivo) [mL/min/kg] | half-life (in vivo) [min] | MRT (in vivo) [h] | Cmax (in vivo) [ng/mL] | Tmax (in vivo) [h] | other results
1 | CC1=NN(c2ccc(C)c(C)c2)C(=O)/C1=N\Nc1cccc(-c2cccc(C(=O)O)c2)c1O [Eltrombopag, eltrombopag, reference compound] | 0.95 ± 0.42 | 680 ± 255 | 1.48 | 469 ± 80.4 | 11.2 ± 2.6 | 61800 ± 18700 | 5.5 ± 1 |  |  |  |  |  |  |  | 
2 | CC1=NN(c2ccc3c(c2)CCC3)C(=O)/C1=N\Nc1cccc(-c2cccc(C(=O)O)c2)c1O.CCNCC.CCNCC [Example 2, (Z)-2′-hydroxy-3′-[N′-(1-indan-5-yl-3-methyl-5-oxo-1,5-dihydro-pyrazol-4-ylidene)-hydrazino]-biphenyl-3-carboxylic acid bis-(diethylamine)] |  |  |  |  |  |  |  | 0.83 ± 0.16 | 833 ± 64 | 1 | 573 ± 86.4 | 11.1 ± 0.76 | 83900 ± 11200 | 5 ± 1.16 | 
3 | CC1=NN(c2ccc3c(c2)CCCC3)C(=O)/C1=N\Nc1cccc(-c2ccc(C(=O)O)o2)c1O [Example 7d, (Z)-5-(2-hydroxy-3-{N′-[3-methyl-5-oxo-1-(5,6,7,8-tetrahydro-naphthalen-2-yl)-1,5-dihydro-pyrazol-4-ylidene]-hydrazino}-phenyl)-furan-2-carboxylic acid] |  |  |  |  |  |  |  |  |  |  |  |  |  |  | Half-Life t½ (50 mg/kg): 7.42 ± 7.19 h; Plasma Conc. Cmax (50 mg/kg): 16.2 ± 3.9 µg/mL; Time to peak Tmax (50 mg/kg): 2.5 ± 1.0 h
4 | CC1=NN(c2ccc3c(c2)CCCC3)C(=O)/C1=N\Nc1cccc(-c2ccc(C(=O)O)o2)c1O [Example 11, (Z)-5-(2-hydroxy-3-{N′-[3-methyl-5-oxo-1-(5,6,7,8-tetrahydro-naphthalen-2-yl)-1,5-dihydro-pyrazol-4-ylidene]-hydrazino}-phenyl)-furan-2-carboxylic acid bis-(piperazine)] |  |  |  |  |  |  |  |  |  |  |  |  |  |  | Area Under Curve AUC (50 mg/kg): 270 ± 178 µg·h/mL; Clearance CL/F (50 mg/kg): 0.877 ± 1.465 L/h/kg; Half-Life t½ (50 mg/kg): 12.1 ± 7.19 h; Plasma Conc. Cmax (50 mg/kg): 40.2 ± 24.3 µg/mL; Time to peak Tmax (50 mg/kg): 1.5 ± 0.58 h
5 | CC1=NN(c2ccc3c(c2)CCC3)C(=O)/C1=N\Nc1cccc(-c2ccc(C(=O)O)o2)c1O.NCCO.NCCO [Example 16, (Z)-5-{2-hydroxy-3-[N′-(1-indan-5-yl-3-methyl-5-oxo-1,5-dihydro-pyrazol-4-ylidene)-hydrazino]-phenyl}-furan-2-carboxylic acid bis-(ethanolamine)] | 6.33 ± 4.57 | 52.4 ± 48 | 32.3 | 125 ± 104 | 3.84 ± 1.03 | 19600 ± 16300 | 2 ± 0.82 |  |  |  |  |  |  |  | 
6 | CC1=NN(c2ccc3c(c2)CCC3)C(=O)/C1=N\Nc1cccc(-c2ccc(C(=O)O)o2)c1O.CCNCC.CCNCC [Example 17, (Z)-5-{2-hydroxy-3-[N′-(1-indan-5-yl-3-methyl-5-oxo-1,5-dihydro-pyrazol-4-ylidene)-hydrazino]-phenyl}-furan-2-carboxylic acid bis-(diethylamine)] |  |  |  |  |  |  |  | 8.16 ± 11.1 | 138 ± 33 | 6.33 | 762 ± 882 | 14 ± 12 | 21500 ± 10500 | 3.38 ± 3.04 | 
7 | CC1=NN(c2ccc3c(c2)CCC3)C(=O)/C1=N\Nc1cccc(-c2csc(C(=O)O)c2)c1O.NCCO.NCCO [Example 19, (Z)-4-{2-hydroxy-3-[N′-(1-indan-5-yl-3-methyl-5-oxo-1,5-dihydro-pyrazol-4-ylidene)-hydrazino]-phenyl}-thiophene-2-carboxylic acid bis-(ethanolamine)] | 5.47 ± 2.72 | 89.2 ± 7.2 | 14.7 | 343 ± 221 | 7.85 ± 2.92 | 20800 ± 17300 | 1.81 ± 2.79 |  |  |  |  |  |  |  | 
8 | CC1=NN(c2ccc3c(c2)CCC3)C(=O)/C1=N\Nc1cccc(-c2csc(C(=O)O)c2)c1O.CCNCC.CCNCC [Example 20, (Z)-4-{2-hydroxy-3-[N′-(1-indan-5-yl-3-methyl-5-oxo-1,5-dihydro-pyrazol-4-ylidene)-hydrazino]-phenyl}-thiophene-2-carboxylic acid bis-(diethylamine)] |  |  |  |  |  |  |  | 2.05 ± 0.68 | 275 ± 116 | 3.5 | 434 ± 147 | 7.59 ± 1.33 | 46100 ± 15700 | 4.5 ± 1 | 

— US9120762B2, “Salts of bicyclo-substituted pyrazolon azo derivatives, preparation method and use thereof” (Jiangsu Hengrui Medicine Co., Ltd., priority 2009, dated 2015)
